Laboratory results: patent US20070264194A1, “Peptides That Bind To Atherosclerotic Lesions” (The Scripps Research Institute, priority 2001, published 2007)
“Also recorded” adds a separate entry of the source. No end group written: not given here.

Assays:
[1] = system: TIMP-2 binding site on the surface of endothelial cells; experiment: Inhibition of peptide binding by TIMP-2 protein; type: cell-based; conditions: purified TIMP-2 protein 0.05 μM, peptide 0.5 μM
Method: (§1) Analysis of synthetic peptide binding to cells was performed in 96 well plates. Cells (10^5) were plated into each well, incubated overnight then briefly fixed with cold ethanol for 10 seconds. Serial concentrations of peptide in 100 μl PBS were added and incubated at room temperature with gentle shaking for four hours. The wells were washed three times with PBS and reaction developed using strepavidin-peroxidase substrate (Vector, Burlingame, Calif.). The reactions were quantified at 405 nm in a plate reader (Molecular Devices, Sunnyvale, Calif.). In the inhibition assay, TIMP-2 protein was included with the peptide in the initial incubation.

[2] = system: HUVEC endothelial cells; experiment: Peptide binding assay, HUVEC; type: cell-based, human; conditions: serial peptide concentrations, biotinylated synthetic peptides
Method: (§2) Human umbilical cord venous endothelial cells (HUVEC) and EGM™ culture medium were from Clonetics, Walkersville, Md. Cells were cultivated in EGM with 5% fetal bovine serum (FBS) in flasks coated with 0.2% gelatin. The bEND.3 cells (ATCC) were cultured in Dulbecco's minimum essential medium (DMEM) (Invitrogen, Carlsbad, Calif.) supplemented with 10% FBS and 2 mM L-glutamine. The HT1080 cells were from ATCC and cultured in DMEM supplemented with 10% FBS, 2 mM L- glutamine, 1.5 g/L sodium bicarbonate, and 0.1 mM NEAA (Non-essential amino acids, Invitrogen, Carlsbad, Calif.). The ECV304 were from ATCC and cultured in DMEM, 10% FBS.
as §1

[3] = system: fibroblast line HT1080; experiment: Peptide binding assay, HT1080; type: cell-based; conditions: not shown
Method: as §2, §1

[4] = system: ECV304; experiment: Peptide binding assay, ECV304; type: cell-based; conditions: not shown
Method: as §2, §1

[5] = system: human atherosclerotic lesions; experiment: Biotinylated peptide binding to human vessel specimens
Method: The atherosclerotic regions of human vessels were similarly dissected and pinned on to the dissecting pan. These tissues were then incubated with refolded biotinylated peptides (10.0 μg/ml) overnight at 4° C. The samples were washed three times. An avidin-peroxidase conjugate was used as a second tier probe, and each specimen was visualized with DAB substrate.

[6] = system: atherosclerotic lesions; experiment: Biotinylated peptide binding in vivo to atherosclerotic lesions (aorta and sections); set-up: species or system atherosclerotic ApoE knockout mice
Method: (§3) Immunohistochemical analysis for binding was performed on frozen 5 micron sections of ApoE mouse atherosclerotic aortic valve and aorta on poly-L-lysine coated slides. Biotinylated peptide binding to aortic lesions was detected by strepavidin conjugated peroxidase and was developed with DAB substrate (Vector, Burlingame, Calif.). For endothelial identification, biotinylated […] was used and was detected with Texas red conjugated strepavidin. Phage staining was performed with rabbit anti-phage antibody followed by a fluorescein conjugated goat anti-rabbit antibody. The sections were analyzed by laser scanning confocal microscopy.
(§4) To observe phage or peptide association with atherosclerotic lesions, either phage carrying a homing peptide sequence or a circular synthetic peptide were injected into the mice via the tail vein. […] Fixation was in situ by perfusion with 4% paraformaldehyde. The aortas were dissected under a microscope, and the associated fat tissue cleaned while attached. The aorta was then longitudinally opened from aortic valve to iliac bifurcation. The detached aorta was pinned flat.
To verify that the peptidyl sequence CAPGPSKSC (SEQ ID NO:4) that is expressed on phage protein m was responsible for the selective localization to atherosclerotic lesions, a biotinylated peptide containing the core sequence CAPGPSKSC (SEQ ID NO:4) was synthesized, folded, disulfide bonds constituted by oxidization, and compositional validity established by mass spectrometry. The peptide was injected into atherosclerotic ApoE knockout mice via tail vein, and the tissues were fixed by in vivo perfusion, and aortas were freed by dissection. The binding of biotinylated peptide to the aorta was visualized with strepavidin conjugated peroxidase and DAB substrate.
The association of this peptide to the atherosclerotic lesions was also analyzed on tissue sections. The experiment was replicated in atherosclerotic ApoE mice by infusing CAPGPSKSC (SEQ ID NO:4) peptide and sections of the aorta were prepared, detected with strepavidin-conjugated peroxidase and developed with DAB substrate. Peptide binding to the surface of atherosclerotic lesions (FIG. 2B) was quite evident. […] These areas are likely involved in lesion formation and differ to some degree in their phenotype compared to that of the overlying endothelium.

[7] = system: aortic endothelium of ApoE knockout mice; experiment: Phage binding to aortic valves/endothelium (immunohistochemistry, confocal microscopy); type: in vivo
Method: as §3, §4

[8] = non-diabetic insulin resistant monkeys; cited from earlier work
[9] = sections of aorta, atherosclerotic ApoE mice

Row | Compound | effect of TIMP-2 protein on peptide binding to cells [1] | peptide binding to endothelial cells (absorbance at 405 nm) [2] | peptide binding to HT1080 cells [3] | peptide binding to ECV304 [4] | other results
1 | CNHRYMQMC (A synthetic sequence from a combinatorial phage display library.) [SEQ ID NO:344, Eo3-114] | inhibits binding; also recorded: competitively inhibited | dose dependent binding | dose dependent binding | dose dependent binding | 
2 | CAPGPSKSC (not fully specified (bridges); cysteine pairing not given here) [SEQ ID NO:4] |  |  |  |  | peptide binding to atherosclerotic lesion in human arterial specimen ([5]; biotinylated peptide 10.0 μg/ml on luminal surface, overnight 4° C., avidin-peroxidase/DAB): Bound peptide is apparent; also recorded: preferentially bound to the atherosclerotic plaque; peptide binding to non-atherosclerotic arterial samples or veins ([5]; human vascular samples, biotinylated peptide): no observable binding; peptide binding to lesions of the aorta ([6]; biotinylated synthetic peptide via tail vein, atherosclerotic ApoE knockout mice, streptavidin-peroxidase/DAB): like that of phage displaying the peptide; also recorded: replicated the CAPGPSKSC (SEQ ID NO:4) phage binding to the lesions; peptide binding to the surface of atherosclerotic lesions, tissue sections ([6]; sections of aorta after infusion of peptide, atherosclerotic ApoE mice): quite evident; pattern of peptide binding within the lesion, tissue sections [6, 9]: most intense in the endothelium overlying the atherosclerotic lesion; also recorded: bind more to the endothelium at the periphery of the lesions and less to the central aspect of the lesions; peptide signal outside the lesions, tissue sections [6, 9]: no substantial signal was evident elsewhere
3 | CYNRSDGMC (A synthetic sequence from a combinatorial phage display library.) [SEQ ID NO:464, TIMP-2 homologous peptide] | inhibits binding; also recorded: competitively inhibited | dose dependent binding | dose dependent binding | dose dependent binding | 
4 | CNQRHQMSC (A synthetic sequence from a combinatorial phage display library.) [SEQ ID NO:336, Eo3-112] | inhibits binding; also recorded: competitively inhibited | dose dependent binding | dose dependent binding | dose dependent binding | selectivity of localization for atherosclerotic lesion endothelium [7]: associates with a molecule present on both atherosclerotic and normal endothelial surfaces; also recorded: not entirely selective for atherosclerotic lesion endothelium
5 | Cc1cc(SCc2sc(-c3ccc(C(F)(F)F)cc3)nc2C)ccc1OCC(=O)O [GW501516] |  |  |  |  | increase of HDL-C [8]: 80%; increase of apoA-I [8]: 43%; triglyceride, LDL-C and insulin levels [8]: lowered
